Test results taken from patent publication US12226476B2, “Helper epitope peptide and application thereof” (CHINA PHARMACEUTICAL UNIVERSITY, priority 2018, dated 2025).
Non-standard residues stand in square brackets, D forms with d. No end group written: not given here. Phe(4-NO2) = N[C@@H](Cc1ccc([N+](=O)[O-])cc1)C(=O)O

Columns and labels:
Format in all cases: in vivo
B epitope SEQ ID NO: 43 = experiment: Antibody titer in serum of immunized mice, indirect ELISA; details: FIG. 23; compared with the B epitope SEQ ID NO: 43 group and the B epitope SEQ ID NO: 43-PADRE group; mice immunized subcutaneously, 50 μg, Freund's adjuvant
Description: (§1) The protocol is as follows: • (1) The helper epitope was connected to individual antigens or antigen epitope with the linking peptide to construct multiple fusion antigens. The sequence of the linking peptide is GPSL (i.e. Gly-Pro-Ser-Leu) (SEQ ID NO:51). • (2) The fusion antigens from (1) were emulsified adequately with complete Freund's adjuvant of the same volume. Then to immunize mice via subcutaneous injection with the emulsion at the dose of 50 μg per mouse. The strains of experimental mice including C57, Fvb and Balb/C. After 7 days and 14 days of first immunization, the fusion antigens from (1) were emulsified adequately with incomplete Freund's adjuvant of the same volume and then to immunize mice via subcutaneous injection with the emulsion at the dose of 50 μg per mouse. • (3) There are two detection methods. […] Then the antibody titer is detected by indirect ELISA. […] PBMC (peripheral blood mononuclear cells) are isolated, and the CTL-mediated cytotoxicity is detected by LDH (lactate dehydrogenase) kit. […]
(§2) Method 1: The whole blood was collected every week after immunization and centrifugated at 6000 rpm for 20 min to obtain the serum for a total of 4 weeks. Antibody titers were detected by indirect ELISA as follows: • (1) Coating: the existing antigen or antigen epitope was diluted to 5 μg/mL with coating solution. […]

Aβ protein-42 = experiment: as above; details: FIG. 24; compared with the Aβ protein-42 group and the Aβ protein-PADRE group; mice immunized subcutaneously, 50 μg, Freund's adjuvant
Description: as §1, §2

target cells = experiment: CTL-mediated cytotoxicity of PBMC from spleen of immunized mice, LDH kit; details: one week after last immunization
Description: The protocol is as follows: • (1) The helper epitope was connected to individual antigens or antigen epitope with the linking peptide to construct multiple fusion antigens. The sequence of the linking peptide is GPSL (i.e. Gly-Pro-Ser-Leu) (SEQ ID NO:51). • (2) The fusion antigens from (1) were emulsified adequately with complete Freund's adjuvant of the same volume. Then to immunize mice via subcutaneous injection with the emulsion at the dose of 50 μg per mouse. The strains of experimental mice including C57, Fvb and Balb/C. After 7 days and 14 days of first immunization, the fusion antigens from (1) were emulsified adequately with incomplete Freund's adjuvant of the same volume and then to immunize mice via subcutaneous injection with the emulsion at the dose of 50 μg per mouse. • (3) There are two detection methods. One is to obtain the orbital blood of immunized mice on 7, 14, 21 and 28 day respectively, centrifuge the whole blood to get the serum. Then the antibody titer is detected by indirect ELISA. The other one is: one week after the last immunization, the mice are killed to get the spleen. PBMC (peripheral blood mononuclear cells) are isolated, and the CTL-mediated cytotoxicity is detected by LDH (lactate dehydrogenase) kit.
The first step was to construct the fusion antigen. […]
Method 2: one week after last immunization, mice were sacrificed, and spleen was taken; then PBMC (peripheral blood mononuclear cells) were isolated, and the CTL-mediated cytotoxicity was detected by LDH (lactate dehydrogenase) kit. • (1) Setting control: The control group was divided into effector cell spontaneous release group, experimental group, target cell spontaneous release group, target cell maximum release group, volume correction control group and background control group; • (2) The cells were centrifuged at 250 g for 4 minutes to make the effector cells fully contact with the target cells; • (3) The detection plate was incubated with 5% CO2 at 37° C. for 4 hours; 10 μL of Lysis buffer was added to every 100 μL medium (10×) in the target cell maximum release group. […]

Sequence: FLPESFDGDPASNTAPLQPEGPSLAKFXAAWTLKAAA (FLPESFDGDPASNTAPLQPEGPSLAKF[Phe(4-NO2)]AAWTLKAAA) [B epitope+3 pPhe-PADRE]
- antibody titers (B epitope SEQ ID NO: 43): significant increase

Sequence: LVFFAEDVGSNKGAIIGLMVGGVVIAGPSLAKFVAXWTLKAAA (LVFFAEDVGSNKGAIIGLMVGGVVIAGPSLAKFVA[Phe(4-NO2)]WTLKAAA) [A-beta protein-6pPhe-PADRE]
- antibody titers (Aβ protein-42): significant increase

Sequence: TGYLYISAGPSLAXFVAAWTLKAAA (TGYLYISAGPSLA[Phe(4-NO2)]FVAAWTLKAAA) [epitope 2+2p-PADRE]
- CTL-mediated cytotoxicity (target cells; FIG. 21, compared with the epitope SEQ ID NO:41 group and the epitope SEQ ID NO: 41-PADre group): significantly enhanced

Sequence: VLDNGDPLGPSLTGYLYISAGPSLAKXVAAWTLKAAA (VLDNGDPLGPSLTGYLYISAGPSLAK[Phe(4-NO2)]VAAWTLKAAA) [epitope 3+3p-PADRE]
- CTL-mediated cytotoxicity (target cells; FIG. 22, compared with the epitope SEQ ID NO:42 group and the epitope SEQ ID NO: 42-PADre group): significantly enhanced

Sequence: VLDNGDPLGPSLXKFVAAWTLKAAA (VLDNGDPLGPSL[Phe(4-NO2)]KFVAAWTLKAAA) [epitope 1+1p-PADRE]
- CTL-mediated cytotoxicity (target cells; FIG. 20, compared with the epitope SEQ ID NO:40 group and the epitope SEQ ID NO: 40-PADre group): significantly enhanced
